In paper PMC10716780, “The multistep oxidation of cholesterol to pregnenolone by human cytochrome P450 11A1 is highly processive” (The Journal of Biological Chemistry, 2023):
Where “and” joins values, the source holds several entries; their conditions need not be identical. Equal values may be shown once.

Target: T1, human P450 11A1 (Homo sapiens, UniProt P05108)
T1 sequence (P05108 41-521 limits assumed): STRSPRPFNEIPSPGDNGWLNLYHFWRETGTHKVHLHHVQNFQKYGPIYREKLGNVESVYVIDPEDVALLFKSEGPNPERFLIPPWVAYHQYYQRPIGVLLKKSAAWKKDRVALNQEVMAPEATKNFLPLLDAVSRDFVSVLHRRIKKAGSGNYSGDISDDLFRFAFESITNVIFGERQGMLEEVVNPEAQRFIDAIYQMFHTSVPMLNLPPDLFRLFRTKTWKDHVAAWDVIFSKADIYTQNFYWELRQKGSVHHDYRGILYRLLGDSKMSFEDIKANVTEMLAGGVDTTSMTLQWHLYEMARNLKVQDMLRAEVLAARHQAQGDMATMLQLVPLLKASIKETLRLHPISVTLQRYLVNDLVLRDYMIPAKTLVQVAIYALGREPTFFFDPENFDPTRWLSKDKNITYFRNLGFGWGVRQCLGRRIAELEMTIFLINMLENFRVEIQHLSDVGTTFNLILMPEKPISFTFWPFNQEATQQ
T1 sequence (P00257 59-186 partner): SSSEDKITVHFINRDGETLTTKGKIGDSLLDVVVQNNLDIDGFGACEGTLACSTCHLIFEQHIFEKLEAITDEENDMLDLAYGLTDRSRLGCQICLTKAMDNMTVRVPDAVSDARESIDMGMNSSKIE
Test: Steady-state conversion of sterols to pregnenolone by reconstituted P450 11A1 (UPLC-MS of dansyl hydrazone)
Format: biochemical
Set-up: M A S T R S P R P F N E I P S P G D N; Met-Ala (N-terminal start residues in place of the transit peptide and Ile40) (N); made in house; host or cells: E. coli (P450 11A1 in C41(DE3); Adx and AdR in E. coli)
Conditions: for Km / kcat / kcat (conversion of sterol to pregnenolone): 0.25 μM P450, 0.5 μM AdR, 10 μM Adx, 37 °C; for rate of pregnenolone formation: duplicate, raw data of Fig. 5
Procedure: Accordingly, all steady-state assays were done, unless otherwise noted, with a P450 11A1:Adx:AdR molar ratio of 1:40:2 (Fig. 2, that is, 0.25 μM P450, 10 μM Adx, and 0.5 μM AdR), in the absence of added lipid or detergent, and with the addition of sterol substrates in HPCD (stock 45% w/v).
As mentioned in the Introduction, many types of assays have been used to monitor the steady-state conversion of cholesterol to pregnenolone ([12], [14], [15], [16], [17], [18], [19], [20], [21]). A reliable and sensitive method was required that could be used for presteady-state reactions and was not reliant on the presence of isotope in cholesterol, in that, we also worked with 22R-OH cholesterol and 20R,22R-(OH)2 cholesterol as substrates. We utilized a method based on our work with P450 17A1 ([41], [42]), in which we derivatized the product pregnenolone as its dansyl hydrazone and separated it by ultra-performance liquid chromatography (UPLC) with detection by positive ion electrospray mass spectrometry (MS). The steroid dehydroepiandosterone (DHEA) was used an internal standard.
Reactions were performed by reconstituting P450 (0.25 μM), AdR (0.5 μM), and Adx (10 μM) on ice for 10 min prior to dilution in potassium Hepes buffer (50 mM, pH 7.4) and H2O and the addition of substrate (sterol, in HPCD (45% w/v)). Sterol dilutions were performed in HPCD to ensure that the HPCD composition was equal throughout all incubations (final 4.5% w/v). The reaction mixture was split between vials (425 μl in each), and reactions were preincubated (37 °C, 5 min) prior to initiation (75 μl) with an NADPH-generating system (0.5 mM NADP^+, 10 mM glucose 6-phosphate, and 2 μg ml^−1 glucose 6-phosphate dehydrogenase) ([61]). Reactions (5 min) were terminated by extraction into CH2Cl2 (2 ml) and transferred to an ice bath. After the experiment was complete, the quenched reactions were subjected to centrifugation (10^3g, 5 min, 23 °C) to separate layers, the organic (bottom) layer of each sample was removed (1.6 ml) to fresh glass vials, and the samples were brought to dryness under a stream of nitrogen.
Steroid extracts were subsequently derivatized with dansylhydrazine and analyzed as described previously ([42]). Briefly, the dried residue was resuspended (200 μl) in C2H5OH (fortified with 0.1% v/v CF3CO2H, as the derivatization reaction is H^+-catalyzed) and mixed with a vortex device. Samples were transferred to 1.5 ml amber glass vials, solutions of dansylhydrazine (10 mM) and DHEA, 10 μM, as internal standard) were added, and vials were capped, mixed with a vortex device, and incubated in the dark overnight (∼16 h, 23 °C). The derivatization reaction was quenched with acetone […], briefly incubated in the dark (∼30 min, 23 °C), and was then neutralized with base (250 μl of 0.5 M NaOH) and extracted into CH2Cl2 (1 ml). The samples were mixed with a vortex device and the organic (bottom) layer was removed (0.8 ml) to clean amber vials. Solvent was again removed under nitrogen, and the dried residue was dissolved in a mobile phase (100 μl) of 0.1% CF3CO2H in aqueous CH3CN (50%, v/v) for analysis.
Samples were injected (10 μl, held at 25 °C) on a 2.1 mm × 50 mm (1.7 μm) Acquity BEH octadecylsilane (C18) column (held at 40 °C) using a Waters Acquity UPLC with a flow rate of 0.2 ml min^−1 and a gradient mobile phase of (A) 0.1% aqueous HCO2H and (B) CH3CN as follows (all %B, v/v): 0 min, 40%; 0.5 min, 40%; 8 min, 100%; 8.5 min, 95%; 9 min, 100%; 9.1 min, 40%; and 10 min, 40%.

CC(C)CC[C@@H](O)[C@](C)(O)[C@H]1CC[C@H]2[C@@H]3CC=C4C[C@@H](O)CC[C@]4(C)[C@H]3CC[C@]12C [20R,22R-(OH)2 Chol, (20R,22R)-Cholest-5-ene-3β,20,22-triol]
Km: 36 ± 7 µM | kcat: 14 ± 1 min⁻¹ | kcat (conversion of sterol to pregnenolone): 0.23 ± 0.02 s⁻¹ | kcat and kcat/Km relative to starting substrate cholesterol (greater) (steady state): ~2 fold | rate of pregnenolone formation (substrate 5 µM, listed as 20R,22R-(OH)2 Cholesterol): 2.46 min⁻¹ and 2.24 min⁻¹ | rate of pregnenolone formation (substrate 7.5 µM, listed as 20R,22R-(OH)2 Cholesterol): 2.57 min⁻¹ and 2.85 min⁻¹ | rate of pregnenolone formation (substrate 15 µM, listed as 20R,22R-(OH)2 Cholesterol): 3.83 min⁻¹ and 4.18 min⁻¹ | rate of pregnenolone formation (substrate 20 µM, listed as 20R,22R-(OH)2 Cholesterol): 4.26 min⁻¹ and 5.83 min⁻¹ | rate of pregnenolone formation (substrate 30 µM, listed as 20R,22R-(OH)2 Cholesterol): 5.47 min⁻¹ and 6.23 min⁻¹ | rate of pregnenolone formation (substrate 40 µM, listed as 20R,22R-(OH)2 Cholesterol): 7.20 min⁻¹ and 6.21 min⁻¹ | rate of pregnenolone formation (substrate 50 µM, listed as 20R,22R-(OH)2 Cholesterol): 6.51 min⁻¹ and 8.53 min⁻¹ | rate of pregnenolone formation (substrate 75 µM, listed as 20R,22R-(OH)2 Cholesterol): 7.45 min⁻¹ and 10.26 min⁻¹ | rate of pregnenolone formation (substrate 100 µM, listed as 20R,22R-(OH)2 Cholesterol): 12.01 min⁻¹ and 10.27 min⁻¹ | rate of pregnenolone formation (substrate 150 µM, listed as 20R,22R-(OH)2 Cholesterol): 9.70 min⁻¹ and 11.61 min⁻¹

CC(C)CC[C@@H](O)[C@@H](C)[C@H]1CC[C@H]2[C@@H]3CC=C4C[C@@H](O)CC[C@]4(C)[C@H]3CC[C@]12C [22R-OH Chol, 22R-hydroxycholesterol]
Km: 29 ± 3 µM | kcat: 9.1 ± 0.3 min⁻¹ | kcat (conversion of sterol to pregnenolone): 0.15 ± 0.01 s⁻¹ | rate of pregnenolone formation (substrate 2.5 µM, listed as 22R-OH Cholesterol): 1.34 min⁻¹ and 1.02 min⁻¹ | rate of pregnenolone formation (substrate 5 µM, listed as 22R-OH Cholesterol): 1.68 min⁻¹ and 1.48 min⁻¹ | rate of pregnenolone formation (substrate 7.5 µM, listed as 22R-OH Cholesterol): 1.94 min⁻¹ and 2.15 min⁻¹ | rate of pregnenolone formation (substrate 15 µM, listed as 22R-OH Cholesterol): 3.15 min⁻¹ and 3.07 min⁻¹ | rate of pregnenolone formation (substrate 20 µM, listed as 22R-OH Cholesterol): 3.29 min⁻¹ and 3.38 min⁻¹ | rate of pregnenolone formation (substrate 30 µM, listed as 22R-OH Cholesterol): 4.66 min⁻¹ and 5.17 min⁻¹ | rate of pregnenolone formation (substrate 40 µM): 5.08 min⁻¹ | rate of pregnenolone formation (substrate 50 µM, listed as 22R-OH Cholesterol): 5.23 min⁻¹ and 5.80 min⁻¹ | rate of pregnenolone formation (substrate 75 µM, listed as 22R-OH Cholesterol): 6.76 min⁻¹ and 6.27 min⁻¹ | rate of pregnenolone formation (substrate 100 µM, listed as 22R-OH Cholesterol): 7.41 min⁻¹ and 6.71 min⁻¹ | rate of pregnenolone formation (substrate 150 µM, listed as 22R-OH Cholesterol): 7.68 min⁻¹ and 8.05 min⁻¹

CC(C)CCC[C@@H](C)[C@H]1CC[C@H]2[C@@H]3CC=C4C[C@@H](O)CC[C@]4(C)[C@H]3CC[C@]12C [Cholesterol]
Km: 38 ± 6 µM | kcat: 6.9 ± 0.5 min⁻¹ | kcat (conversion of sterol to pregnenolone): 0.12 ± 0.01 s⁻¹ | kcat (conversion of sterol to pregnenolone) (listed as cholesterol): 0.12 s⁻¹ | kcat for conversion to pregnenolone (40-fold excess Adx): 6.9 nmol product formed min^−1 (nmol P450)^−1 | rate of pregnenolone formation (substrate 7.5 µM): 1.32 min⁻¹ and 1.18 min⁻¹ | rate of pregnenolone formation (substrate 15 µM): 1.88 min⁻¹ and 1.72 min⁻¹ | rate of pregnenolone formation (substrate 20 µM): 2.38 min⁻¹ and 2.20 min⁻¹ | rate of pregnenolone formation (substrate 30 µM): 2.47 min⁻¹ and 2.46 min⁻¹ | rate of pregnenolone formation (substrate 40 µM): 3.96 min⁻¹ and 3.88 min⁻¹ | rate of pregnenolone formation (substrate 50 µM): 4.06 min⁻¹ and 4.00 min⁻¹ | rate of pregnenolone formation (substrate 75 µM): 4.99 min⁻¹ and 4.93 min⁻¹ | rate of pregnenolone formation (substrate 100 µM): 5.93 min⁻¹ and 4.92 min⁻¹ | rate of pregnenolone formation (substrate 150 µM): 4.83 min⁻¹ and 5.08 min⁻¹
